These are literature values, as cited in patent publication US10610592B2, “Treatment of multiple sclerosis” (priority 2014, dated 2020).

For data set [1] the following is noted: very prolonged elimination.
For data set [2] the following is noted: patients treated with alemtuzumab.

For the compound `C/C(O)=C(\C#N)C(=O)Nc1ccc(C(F)(F)F)cc1` [Teriflunomide], in data set [1], the elimination time result is recorded as “up to 2 years”.
Turning to “Alemtuzumab: monoclonal antibody that binds to proteins (CD-52) on mature lymphocytes”, in data set [2], the “patients who develop thyroid autoimmune diseases, and hematologic and renal complications” value is given as “Approximately 40%”.
